Measured values published in patent US10947188B2, “Small molecule ferroptosis inducers” (THE TRUSTEES OF COLUMBIA UNIVERSITY IN THE CITY OF NEW YORK, priority 2016, dated 2021).

Tested on: HT-1080
Assay: Modulatory profiling: Alamar Blue viability, lethal compound cotreated with death modulator (EC50, AUC); as to AUC HT.BHA: reference of the scale not given here; as to AUC HT.EGTA: reference of the scale not given here
Assay type: cell-based
Set-up: AUC, modulator HT.3MA / AUC, modulator HT.ALLN / AUC HT.ATA / AUC HT.ActD / AUC HT.BHA / AUC HT.BHT / AUC HT.BocD / AUC HT.CHX / AUC HT.Co2+ / AUC HT.DPQ / AUC HT.EGTA / AUC HT.Lmim / AUC HT.NAD+ / AUC HT.Nec-1 / AUC HT.SP600125 / AUC HT.TLCK / AUC HT.U0126: unit not given beside the values
Conditions: for AUC HT.ATA: HT-1080, modulator ATA; for AUC HT.ActD: HT-1080, modulator ActD; for AUC HT.BHA: HT-1080, modulator BHA; for AUC HT.BHT: HT-1080, modulator BHT; for AUC HT.BocD: HT-1080, modulator BocD; for AUC HT.CHX: HT-1080, modulator CHX; for AUC HT.Co2+: HT-1080, modulator Co2+; for AUC HT.CspA: HT-1080, modulator CspA; for AUC HT.DPQ: HT-1080, modulator DPQ; for AUC HT.EGTA: HT-1080, modulator EGTA; for AUC HT.Gd3+: HT-1080, modulator Gd3+; for AUC HT.LNAME: HT-1080, modulator LNAME; for AUC HT.Lmim: HT-1080, modulator Lmim; for AUC HT.NAD+: HT-1080, modulator NAD+; for AUC HT.NMMA: HT-1080, modulator NMMA; for AUC HT.Nec-1: HT-1080, modulator Nec-1; for AUC HT.Pepstatin: HT-1080, modulator Pepstatin; for AUC HT.SP600125: HT-1080, modulator SP600125; for AUC HT.TLCK: HT-1080, modulator TLCK; for AUC HT.U0126: HT-1080, modulator U0126; for HT.atoc (AUC) / HT.bCarotene (AUC) / HT.deferox (AUC) / HT.digoxin (AUC) / HT.trolox (AUC) / HT.zVAD (AUC): HT-1080; for HT.atoc (AUC): modulator atoc; for HT.bCarotene (AUC): modulator bCarotene; for HT.deferox (AUC): modulator deferox; for HT.digoxin (AUC): modulator digoxin; for HT.trolox (AUC): modulator trolox; for HT.zVAD (AUC): modulator zVAD; for AUC, modulator HT.3MA / AUC, modulator HT.ALLN: HT-1080 cells, modulatory profile value (AUC); for AUC, modulator HT.3MA: lethal compound cotreated with modulator 3MA; for AUC, modulator HT.ALLN: lethal compound cotreated with modulator ALLN

SMILES	AUC HT.ATA	AUC HT.ActD	AUC HT.BHA	AUC HT.BHT	AUC HT.BocD	AUC HT.CHX	AUC HT.Co2+	AUC HT.CspA	AUC HT.DPQ	AUC HT.EGTA	AUC HT.Gd3+	AUC HT.LNAME	AUC HT.Lmim	AUC HT.NAD+	AUC HT.NMMA	AUC HT.Nec-1	AUC HT.Pepstatin	AUC HT.SP600125	AUC HT.TLCK	AUC HT.U0126	further results
COc1cc([C@@H]2c3cc4c(cc3[C@H](O)[C@H]3COC(=O)[C@H]23)OCO4)cc(OC)c1OC [Podophyllotoxin]	0.1206	−0.0009195	0.02739	0.0008586	0.0984	0.07197	0.1102	−0.07592	0.005964	0.01145	0.00916	−0.004926	0.1098	0.1318	0.000472	−0.0001825	−0.0005129	−0.02768	0.06978	0.1354	HT.atoc (AUC): −0.02023; HT.bCarotene (AUC): 0.0009225; HT.deferox (AUC): 0.3104; HT.digoxin (AUC): 0.1098; HT.trolox (AUC): 0.0103; HT.zVAD (AUC): 0.09402; AUC, modulator HT.3MA: 0.001351; AUC, modulator HT.ALLN: 0.1572
C=C(C)[C@H]1Cc2c(ccc3c2O[C@@H]2COc4cc(OC)c(OC)cc4[C@@H]2C3=O)O1 [Rotenone]	0.05899	0.1062	−0.02184	0.02467	0.05103	0.07793	0.2003	−0.1722	−0.005403	0.002258	0.01051	−0.007377	0.1413	0.1563	0.007832	0.003921	−0.02255	−0.01964	0.0438	0.1384	HT.atoc (AUC): 0.04769; HT.bCarotene (AUC): 0.003594; HT.deferox (AUC): 0.347; HT.digoxin (AUC): 0.1617; HT.trolox (AUC): 0.003895; HT.zVAD (AUC): 0.01972; AUC, modulator HT.3MA: 0.06289; AUC, modulator HT.ALLN: 0.07973
CC(/C=C/C(=O)NO)=C\[C@@H](C)C(=O)c1ccc(N(C)C)cc1 [TrichostatinA]	−0.0004817	−0.1678	−0.06956	−0.1352	0.04109	−0.09696	−0.02771	−0.1437	−0.001553	−0.01711	−0.003398	0.003502	−0.05021	0.03432	0.004335	−0.07289	−0.003985	−0.06865	−0.02599	−0.06468	HT.atoc (AUC): −0.005062; HT.bCarotene (AUC): −0.03472; HT.deferox (AUC): −0.1597; HT.digoxin (AUC): −0.1261; HT.trolox (AUC): −0.03382; HT.zVAD (AUC): 0.04012; AUC, modulator HT.3MA: −0.1241; AUC, modulator HT.ALLN: −0.1481
